For 10 molecules, Ki results are on record in ChEMBL document CHEMBL1128133, “Synthesis and binding affinity of 2,3,3a,4,9,9a-hexahydro-9,4-(iminomethano)-1H-benz[f]indenes. Ligands for the PCP site of the NMDA receptor” (Bioorg Med Chem Lett, 1995).

Each structure is given as a SMILES string.

The nature of this assay: Binding affinity against PCP site of the NMDA Receptor using [3H]TCP radioligand.
As to `Nc1cccc2c1C1CNC2C2CCCC12` (stereo not given), the inhibition constant (Ki) (in general, a measure of affinity in units of concentration, obtained from inhibition or displacement) is 14 nM.
Under `CN1CC2c3c(N)cccc3C1C1CCCC21` (stereo not given) stands 226 nM.
The result for `Oc1cccc(C2(N3CCCCC3)CCCCC2)c1` reads 38 nM; that for `c1ccc2c(c1)C1CNC2C2CCCC12` (stereo not given), 52 nM; that for `C[C@H]1NC2c3cccc(N)c3C1C1CCCC21` (stereo not given in full), 8 nM.
Under `CN1CC2c3c(N)cccc3C1C1C=CCC21` (stereo not given) stands 701 nM; under `CN1CC2c3ccccc3C1C1CCCC21` (stereo not given), 1140 nM; under `C[C@@H]1NC2c3cccc(N)c3C1C1CCCC21` (stereo in doubt; 12a), 89 nM.
On to `C[C@@H]1NC2c3cccc(N)c3C1C1CCCC21` (stereo in doubt; 13), for which the affinity, expressed as Ki, was 1200 nM.
The result for `C[C@]12N[C@H](Cc3ccccc31)c1ccccc12` [DIZOCILPINE] reads 2.2 nM.
